Data on one compound can be found in patent EP0067084B1, “Eye-lotion compositions for the treatment of conjunctivitis and keratitis” (Laboratoires P.O.S. Société Anonyme dite:, priority 1981, dated 1982).

Data set [1] can be described thus: Solubility (description of the product). It is filed as physicochemical.
The next data set deals with lapin. The experiment in a line: Chronic toxicity in the rabbit, ocular instillation, 13 weeks. The class given is in vivo. Particulars: instillation oculaire, 4 doses par jour, solution à 0,9 g (pour 100 ml), 13 semaines.
Another data set concerns chien. The experiment in a line: Chronic toxicity in the dog, oral, 13 weeks. The class given is in vivo. Particulars: 35 mg/Kg/jour, 13 semaines.

Take `CCCCCCCCCCCCOCCCN` [Lopa, amino-1 dodécyloxy-3 propane]: the solubility in water result in data set [1] (eau) is “insoluble dans l'eau”. In data set [1] (méthanol, chloroforme, acétone, benzène), the “solubility in organic solvents” value is listed as “soluble dans divers solvants organique”. The “toxicité locale et/ou systématique” value in the data set on lapin and in the data set on chien was “aucune toxicité locale et/ou systématique” throughout.
